Earlier results as cited in patent US11801302B2, “Formulations and uses thereof” (priority 2020, dated 2023).
“Also recorded” adds a separate entry of the source. Each block holds one compound with its values, some of them ahead of it.

Columns and labels:
[1] = tested on: skin, prostate, breast, and ovarian cancer; conditions: preclinical models of skin
[2] = tested on: central benzodiazepine receptor
diuresis = conditions: dose-dependent; only when animals were fluid overloaded, not euvolemic
anxiety = conditions: in vivo
cancer = conditions: in vitro and in vivo
[3] = tested on: UV-induced hyperpigmentation of the skin; conditions: in vivo
[4] = compared with other vitamin K homologs
bone = conditions: in vivo
[5] = tested on: anger, mitochondrial function; conditions: in vivo
[6] = tested on: cholesterol transport-related protein (NPC1L1); conditions: cell model
wound = conditions: setting of a wound
blood pressure = conditions: in some cases patients no longer needing antihypertensive medications
[7] = tested on: hyperactivity induced by MK-801; conditions: in vivo
HDL and LDL cholesterol = conditions: in vivo
[8] = tested on: patients who respond with increased carboxylation of osteocalcin; conditions: subset of patients with increased carboxylation of osteocalcin
chronic plaque psoriasis = conditions: topical application
[9] = tested on: atypical/precancerous stem cells; conditions: used separately or together
[10] = tested on: inflammatory markers PPARγ and TNFα; conditions: with emu oil; animal model of ulcerative colitis
normal mice = conditions: observed only at a dose of 30 mg/kg in normal mice

SMILES: O=c1cc(-c2ccc(O)cc2)oc2cc(O)cc(O)c12 [Apigenin]
antitumor effect [1]: exerts an antitumor effect in preclinical models
anxiolytic and mild sedative effects when flumazenil is administered first ([2]; benzodiazepine antagonist flumazenil): (PMID 7617761), an effect that is reversible
effects as central benzodiazepine receptor ligand ([2]; in vivo): ligand with anxiolytic and slight sedative; also recorded: ligand with anxiolytic and mild sedative effects

SMILES: C=C(C)[C@H]1CC=C(C)CC1 [D-limonene]
diuretic effect (diuresis): more capable. D-limonene has a mild diuretic
anxiolytic properties with flumazenil (anxiety): is NOT reversed by flumazenil, indicating a
production of IFN-γ, IL-2, TNF-α, IL-4 and IL-13 by CD3(+) CD4(+) T cells; IFN-γ, IL-2, and TNF-α by CD3(+) CD8(+) T cells (T lymphocytes): viability (PMID 23059811) by inhibiting

SMILES: O=C(O)c1cc(O)c(O)c(O)c1 [Gallic Acid]
inhibitory properties against cancer (cancer): Plant polyphenol with strong inhibitory

SMILES: CCCCC/C=C\C/C=C\CCCCCCCC(=O)O [Linoleic acid]
UV-induced hyperpigmentation of the skin [3]: shown to lighten UV-induced

bioavailability [4]: higher bioavailability
half-life [4]: longer half-life
SMILES: CC(C)=CCC/C(C)=C/CC/C(C)=C/CC/C(C)=C/CC/C(C)=C/CC/C(C)=C/CC/C(C)=C/CC1=C(C)C(=O)c2ccccc2C1=O [MK7]
bone mineral density (bone): other vitamin K homologs. MK7 increases

SMILES: CCCCCCCC/C=C\CCCCCCCC(=O)O [Oleic acid (OA)]
anger [5]: unexpectedly has been shown to decrease anger
pain and itch receptors (pain and itch receptors): directly inhibits pain and itch receptors (PMID
expression of cholesterol transport-related protein (NPC1L1) [6]: 2235880). OA has been shown to decrease
thickness of the necrotic tissue layer in the wound (wound): wound healing tissue mass, while decreasing
blood pressure (blood pressure): 21181463). OA has been shown to reduce blood
lipophilic penetration of skin cells (skin cells): Oleic acid (OA) enhances lipophilic penetration

SMILES: O=c1c(O)c(-c2ccc(O)c(O)c2)oc2cc(O)cc(O)c12 [Quercetin]
hyperactivity induced by NMDA receptor antagonist MK-801 [7]: transmission and alleviates the hyperactivity

SMILES: CCCCCCCCCCCCCCCCCC(=O)O [Stearic acid]
“bad” cholesterol LDL (HDL and LDL cholesterol): cholesterol HDL while reducing the “bad”
“good” cholesterol HDL (HDL and LDL cholesterol): 10945745) and can increase the “good”

SMILES: CC(C)=CCC/C(C)=C/CC/C(C)=C/CC/C(C)=C/CC/C(C)=C/CC/C(C)=C/CC/C(C)=C/CC1=C(C)C(=O)c2ccccc2C1=O [Vitamin K2 (MK7)]
body weight, abdominal and visceral fat [8]: reduced body weight, abdominal and visceral

SMILES: C=C1/C(=C\C=C2/CCC[C@]3(C)[C@@H]([C@H](C)/C=C/[C@@H](O)C4CC4)CC[C@@H]23)C[C@@H](O)C[C@@H]1O [calcipotriene]
chronic plaque psoriasis (chronic plaque psoriasis): topical application of calcipotriene improves

SMILES: COc1cc(/C=C/C(=O)CC(=O)/C=C/c2ccc(O)c(OC)c2)ccc1O [curcumin, diferuloylmethane]
number of atypical/precancerous stem cells [9]: reduced the number of atypical/precancerous stem cells

SMILES: CC(C)=CCC/C(C)=C/CO [geraniol]
kidney glycogen content (GLUT2 transporter; compared to diabetic control): release of glucose from the liver; also doubled
renal glucose output (GLUT2 transporter; compared to diabetic control): kidney glycogen content, doubling renal glucose
GLUT2 transporter (GLUT2 transporter; geraniol from Cymbopogon martinii): inhibition of GLUT2 transporter by geraniol

SMILES: CC1(C)[C@@H](O[C@H]2O[C@H](C(=O)O)[C@@H](O)[C@H](O)[C@H]2O[C@@H]2O[C@H](C(=O)O)[C@@H](O)[C@H](O)[C@H]2O)CC[C@]2(C)[C@H]3C(=O)C=C4[C@@H]5C[C@@](C)(C(=O)O)CC[C@]5(C)CC[C@@]4(C)[C@]3(C)CC[C@@H]12 [glycyrrhizin]
anti-inflammatory effect by modulating PPARγ and TNFα [10]: synergizes with emu oil to exert a stronger anti-

SMILES: C=C(C)C1CCC(C)(O)C(O)C1 (stereo not drawn) [limonene-1-2-diol]
production of IFN-γ, IL-2, TNF-α, IL-4 and IL-13 by CD3(+) CD4(+) T cells; IFN-γ, IL-2, and TNF-α by CD3(+) CD8(+) T cells (T lymphocytes): viability (PMID 23059811) by inhibiting

SMILES: C=C(C)[C@@H]1CC=C(C(=O)O)CC1 [perillic acid]
production of IFN-γ, IL-2, TNF-α, IL-4 and IL-13 by CD3(+) CD4(+) T cells; IFN-γ, IL-2, and TNF-α by CD3(+) CD8(+) T cells (T lymphocytes): viability (PMID 23059811) by inhibiting

SMILES: COc1cc(CCC(C)=O)ccc1O [zingerone]
diuretic effect (normal mice): Oil, zingerone exhibited a mild diuretic effect
